The test system of assay [1] is S. aureus 29213 biofilm. Description: Real-time monitoring of antibiofilm activity, CoMIC method. The assay is classed as cell-based. How it is done: (§1) 1:2 serial dilutions of ciprofloxacine (200–0 µg/mL) and sodium hypochlorite (5–0%) were prepared in Congo Red Broth media with sucrose. S. aureus 29213 were added into culture media with a final concentration of 1×10^6 Colony-forming unit/mL (CFU/mL). All cultures were performed as triplicate and incubated at 37°C overnight and fluorescence measurements were conducted by using Varioscan (Thermo, USA). The excitation/emission wavelengths were used as 525/625 nm. As a replica plate, bacteria in the same broth media, except Congo Red were cultured and analyzed with conventional Crystal Violet (CV) method. For this purpose, the bacterial cultures were removed, and wells were washed with distilled water. There was 200 µl of 1% CV dye added to each well and incubated at room temperature for 15 min in the dark. Then, CV dye was removed, and wells were washed with water. After the plate was dry, 33% acetic acid was added into wells to dissolve the dye and wells were spectrophotometrically read by Varioscan (Thermo, USA) at 590 nm (Stepanović et al. [2000]).

Assay [2] concerns S. aureus 29213 biofilm. The assay is described as follows: Antibiofilm activity, crystal violet (CV) replica plate. The assay is classed as cell-based. To be noted: CV method. How it is done: as §1
Setting [3] is: S. aureus 29213, added at the very beginning of the biofilm culture.
Where [4] appears, read: S. aureus 29213, added just before the start of biofilm formation.
The mark [5] stands for this setting: S. aureus 29213, added in the very beginning.
The mark [6] stands for this setting: S. aureus 29213, added just before biofilm formation.

For the compound `O=C(O)c1cn(C2CC2)c2cc(N3CCNCC3)c(F)cc2c1=O` [ciprofloxacin], the MIC for biofilms against S. aureus 29213 biofilm [1] (setting [3]) is given as 50 µg/mL; against S. aureus 29213 biofilm [1] (setting [4]), over 200 µg/mL; in the assay on S. aureus 29213 biofilm [2] (setting [5]) it was 12.5 µg/mL; against S. aureus 29213 biofilm [2] (setting [6]) it was over 200 µg/mL.
As to `[Na+].[O-]Cl` [sodium hypochlorite], the MIC for biofilms was found to be 1.25% against S. aureus 29213 biofilm [1] (setting [3]), 1.25% with S. aureus 29213 biofilm [1] (setting [4]), 1.25% with S. aureus 29213 biofilm [2] (setting [5]) and 5% against S. aureus 29213 biofilm [2] (setting [6]).

These data come from article PMC11068671, “New-generation biofilm effective antimicrobial peptides and a real-time anti-biofilm activity assay: CoMIC” (Applied Microbiology and Biotechnology, 2024).
